Our source for the EC50 values is patent US7091202B2, “4-arylspirocycloalkyl-2-aminopyrimidine carboxamide KCNQ potassium channel modulators” (Bristol-Myers Squibb Company, priority 2004, dated 2006).

The target in the first test is T1, hQ23 (HEK-293 cell line stably transfected with one of the members of the KCNQ family) (Homo sapiens, UniProt O43525+O43526).
T1 construct: expressed in transfected cells; host or cells: HEK-293, stably transfected
T1 sequence (O43526 whole entry): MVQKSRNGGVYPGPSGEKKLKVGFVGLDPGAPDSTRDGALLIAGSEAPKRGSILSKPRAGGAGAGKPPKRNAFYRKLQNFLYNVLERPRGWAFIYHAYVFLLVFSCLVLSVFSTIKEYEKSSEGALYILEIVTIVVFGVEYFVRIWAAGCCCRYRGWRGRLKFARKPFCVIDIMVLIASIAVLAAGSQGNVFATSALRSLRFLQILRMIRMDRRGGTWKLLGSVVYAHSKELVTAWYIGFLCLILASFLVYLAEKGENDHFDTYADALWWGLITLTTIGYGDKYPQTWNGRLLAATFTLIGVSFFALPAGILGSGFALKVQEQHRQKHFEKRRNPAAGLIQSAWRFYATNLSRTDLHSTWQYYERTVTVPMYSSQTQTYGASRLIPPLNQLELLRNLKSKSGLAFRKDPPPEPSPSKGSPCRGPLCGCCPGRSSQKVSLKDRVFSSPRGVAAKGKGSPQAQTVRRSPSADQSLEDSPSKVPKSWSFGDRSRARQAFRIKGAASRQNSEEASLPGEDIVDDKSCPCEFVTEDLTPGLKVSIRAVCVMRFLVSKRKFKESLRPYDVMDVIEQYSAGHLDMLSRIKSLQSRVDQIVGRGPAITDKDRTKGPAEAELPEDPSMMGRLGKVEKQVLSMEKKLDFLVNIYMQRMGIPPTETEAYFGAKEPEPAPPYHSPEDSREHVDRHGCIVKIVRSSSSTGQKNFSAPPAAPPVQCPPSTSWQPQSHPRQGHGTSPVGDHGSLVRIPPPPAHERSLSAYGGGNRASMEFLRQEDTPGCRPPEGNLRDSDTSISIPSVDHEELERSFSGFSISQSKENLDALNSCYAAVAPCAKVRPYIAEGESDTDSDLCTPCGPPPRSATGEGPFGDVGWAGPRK
T1 sequence (O43525 whole entry): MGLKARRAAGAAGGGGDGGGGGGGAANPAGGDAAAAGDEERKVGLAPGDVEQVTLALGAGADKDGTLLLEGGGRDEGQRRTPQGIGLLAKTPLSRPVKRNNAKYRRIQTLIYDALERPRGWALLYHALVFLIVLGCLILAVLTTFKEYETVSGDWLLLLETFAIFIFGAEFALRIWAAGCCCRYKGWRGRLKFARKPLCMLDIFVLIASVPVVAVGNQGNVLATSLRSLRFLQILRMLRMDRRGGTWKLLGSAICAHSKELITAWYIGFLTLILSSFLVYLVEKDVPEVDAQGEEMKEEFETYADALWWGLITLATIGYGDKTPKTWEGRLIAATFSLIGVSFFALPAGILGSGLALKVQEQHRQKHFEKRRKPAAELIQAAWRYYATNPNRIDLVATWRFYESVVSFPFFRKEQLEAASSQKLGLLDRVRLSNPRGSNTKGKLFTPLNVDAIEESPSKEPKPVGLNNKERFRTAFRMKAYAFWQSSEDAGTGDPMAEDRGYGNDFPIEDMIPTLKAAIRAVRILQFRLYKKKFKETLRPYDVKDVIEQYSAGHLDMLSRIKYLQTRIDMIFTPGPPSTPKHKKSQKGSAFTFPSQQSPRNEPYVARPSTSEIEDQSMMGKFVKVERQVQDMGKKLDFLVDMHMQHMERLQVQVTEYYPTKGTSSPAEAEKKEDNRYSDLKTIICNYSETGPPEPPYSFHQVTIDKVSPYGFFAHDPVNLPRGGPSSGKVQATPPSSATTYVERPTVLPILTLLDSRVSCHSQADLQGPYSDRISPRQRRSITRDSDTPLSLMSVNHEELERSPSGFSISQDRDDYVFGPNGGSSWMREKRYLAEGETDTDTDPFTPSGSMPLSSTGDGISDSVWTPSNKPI
Put plainly: Thallium flux assay for KCNQ channel blockers (FLIPR, BTC dye). The test is classed as cell-based. The note with it: Table 2; thallium flux, HEK-293. The protocol:
Thallium Flux Assay for KCNQ channel blockers. Approximately 20,000 cells/well of an HEK-293 cell line stably transfected with one of the members of the KCNQ family were plated into clear-bottom, black-walled, poly-D-lysine coated, 384 well assay plates in 20 μl/well of low chloride plating medium. Low chloride plating medium was composed of the following: sodium gluconate, 109 mM; potassium gluconate, 5.4 mM; hemi-calcium gluconate, 3.6 mM; magnesium sulfate, 0.8 mM; sodium bicarbonate, 26.2 mM; sodium phosphate monobasic, 1.2 mM; glutamine, 2 mM; glucose, 5 mM; HEPES (pH 7.3) 10 mM, 10× concentration of vitamins (Gibco/LifeTechnologies catalog #11120-052) and 1× concentration of amino acids (Gibco/LifeTechnologies catalog #11130-051).
Following overnight incubation in a 5% CO2 incubator at 37° C., the cells in the plates were loaded with 20 μl/well of a dye loading solution containing the acetomethoxy ester of the thallium-sensitive fluorescent dye BTC, BTC-AM (2 μM) and pluronic acid (0.02% w/v) in chloride free assay buffer. Chloride free assay buffer was composed of the following: sodium gluconate, 140 mM; potassium gluconate, 2.5 mM; hemi-calcium gluconate, 6 mM; hemi-magnesium gluconate, 2 mM; glucose, 5 mM; HEPES (pH 7.3), 10 mM.
Following incubation in the dye loading solution for from 45–90 min at room temperature, the dye loading solution was removed by aspiration and replaced with 40 μl/well of chloride free assay buffer.
Prior to addition to cell plates, test compound and standard compounds were dissolved in DMSO to 3 mM concentration. Compounds were then diluted from the 3 mM stock to 100-fold over the final assay concentration in DMSO. Finally, compounds in DMSO were diluted from 100-fold over the final assay concentration to 5-fold over the final assay concentration in chloride free assay buffer.
Ten μl/well of compounds at 5-fold over the final assay concentration were then added to the cell plates. This represents a 1:5 dilution, yielding the final test concentration. The wells used for test compounds were A1–P20. Wells A21–P22 contained a standard ‘blocker’ and a fully efficacious concentration (positive control). Wells A23–P24 contained chloride free assay buffer containing 1% DMSO (negative control).
Following addition of test compounds, the plates were loaded onto the Molecular Devices FLIPR. The 488 nm line of the argon laser was used to excite the BTC and the emission filter was a 540(+/−30) nm. Images were collected at 1 Hz. Ten seconds of baseline were collected and then the FLIPR was used to add 13 μl/well of a stimulus buffer composed of Tl2SO4, 25 mM; sodium gluconate, 30 mM; potassium sulfate, 50 mM; hemi-calcium gluconate, 6 mM; hemi-magnesium gluconate, 2 mM; glucose, 5 mM; HEPES (pH 7.3), 10 mM in chloride free assay buffer. Images were collected for an additional 60 seconds.
For data analysis, the amplitude of the average of the negative controls was subtracted from all wells. The amplitudes of the test compounds were then compared to the value of four standard deviations of the negative control wells. The lowest concentration of a test compound sufficient to generate a signal amplitude greater than or equal to four standard deviations from the amplitude of the negative controls was defined as the minimal active concentration.
For generating IC50 values, compounds were serially diluted in 1:3 volume increments to produce a 10 point concentration series. IC50 values were calculated by fitting the resulting amplitudes to a single-site logistic equation. IC50 was defined as the concentration of test compound required to yield 50% of the response of the positive control.
Turning to `CC1CCN(c2ncc(C(=O)N3CCc4ccccc4C3)c(C3(c4ccccc4)CC3)n2)CC1` [Example 26, isoquinoline, 1,2,3,4-tetrahydro-2-[[2-(4-methyl-1-piperidinyl)-4-(1-phenylcyclopropyl)-5-pyrimidinyl]carbonyl]-], the midpoint of the response, the EC50, lay at 546 nM. That is a sub-micromolar value.

Still in this test, the particulars now being: Table 3; thallium flux, HEK-293.
For `CCC(C)Nc1ncc(C(=O)N(CC)CC)c(C2(c3ccc(Cl)cc3)CCC2)n1` (stereo not drawn) [Example 52, 5-pyrimidinecarboxamide, 4-[1-(4-chlorophenyl)cyclobutyl]-N,N-diethyl-2-[(1-methylpropyl)amino]-], the EC50 (commonly the concentration at which the effect is half-maximal) came to 211 nM.

Staying with this test, now noted: hQ23 cells, thallium flux.
`CC1CCC(Nc2ncc(C(=O)NC(C)c3ccc(F)cc3)c(C3(c4ccc(Cl)cc4)CCCC3)n2)CC1` (stereo not drawn) [Example 197, 5-pyrimidinecarboxamide, 4-[1-(4-chlorophenyl)cyclopentyl]-N-[1-(4-fluorophenyl)ethyl]-2-[(4-methylcyclohexyl)amino]-] showed an EC50 of 233 nM. That is a sub-micromolar value.
Same read-out and setting: the figure for `CCN(C(=O)c1cnc(N2CCCC2)nc1C1(c2ccc(F)cc2)CCCC1)C1CCCCC1` [Example 213, 5-pyrimidinecarboxamide, N-cyclohexyl-N-ethyl-4-[1-(4-fluorophenyl)cyclopentyl]-2-(1-pyrrolidinyl)-] is 680 nM; for `CC1CCCN(c2ncc(C(=O)NCc3cccc4ccccc34)c(C3(c4ccccc4)CCCC3)n2)C1` (stereo not drawn) [Example 103, 5-pyrimidinecarboxamide, 2-(3-methyl-1-piperidinyl)-N-(1-naphthalenylmethyl)-4-(1-phenylcyclopentyl)-] it is 66 nM; for `CC1CCCN(c2ncc(C(=O)NCc3ccc(F)cc3F)c(C3(c4ccc(Cl)cc4)CCCC3)n2)C1` (stereo not drawn) [Example 187, 5-pyrimidinecarboxamide, 4-[1-(4-chlorophenyl)cyclopentyl]-N-[(2,4-difluorophenyl)methyl]-2-(3-methyl-1-piperidinyl)-] it is 95 nM.
In turn, `O=C(NCc1cc(F)cc(C(F)(F)F)c1)c1cnc(N2CCCC2)nc1C1(c2ccc(Cl)cc2)CCCC1` [Example 191, 5-pyrimidinecarboxamide, 4-[1-(4-chlorophenyl)cyclopentyl]-N-[[3-fluoro-5-(trifluoromethyl)phenyl]methyl]-2-(1-pyrrolidinyl)-] had an EC50 of 32 nM.
On the same count and under the same terms, the figure for `O=C(NCc1cc(F)cc(C(F)(F)F)c1)c1cnc(NC2CCCC2)nc1C1(c2ccccc2)CCCC1` [Example 130, 5-pyrimidinecarboxamide, 2-(cyclopentylamino)-N-[[3-fluoro-5-(trifluoromethyl)phenyl]methyl]-4-(1-phenylcyclopentyl)-] is 875 nM.
Same read-out and setting: then `CC1CCC(Nc2ncc(C(=O)NCc3ccc(F)cc3F)c(C3(c4ccccc4)CCCC3)n2)CC1` (stereo not drawn) [Example 116, 5-pyrimidinecarboxamide, N-[(2,4-difluorophenyl)methyl]-2-[(4-methylcyclohexyl)amino]-4-(1-phenylcyclopentyl)-], with 85 nM.

The same test, now with this note: hQ23 cells, thallium flux assay.
Regarding `CCC(C)Nc1ncc(C(=O)NC(C)c2ccc(F)cc2)c(C2(c3ccc(F)cc3)CCCC2)n1` (stereo not drawn) [Example 286, 5-pyrimidinecarboxamide, 4-[1-(4-fluorophenyl)cyclopentyl]-N-[1-(4-fluorophenyl)ethyl]-2-[(1-methylpropyl)amino]-], the half-maximal effective concentration (EC50) worked out at 852 nM.
On to `CC(NC(=O)c1cnc(N2CCCC2)nc1C1(c2ccc(F)cc2)CCCC1)c1ccc(F)cc1` (stereo not drawn) [Example 282, 5-pyrimidinecarboxamide, 4-[1-(4-fluorophenyl)cyclopentyl]-N-[1-(4-fluorophenyl)ethyl]-2-(1-pyrrolidinyl)-], for which the EC50 amounted to 594 nM.
On the same count and under the same terms, the figure for `CN1CCN(c2ncc(C(=O)NCc3ccc(F)cc3F)c(C3(c4ccc(F)cc4)CCCC3)n2)CC1` [Example 268, 5-pyrimidinecarboxamide, N-[(2,4-difluorophenyl)methyl]-4-[1-(4-fluorophenyl)cyclopentyl]-2-(4-methyl-1-piperazinyl)-] is 634 nM.
